# Assay results published in patent US20230373985A1 (Origenis Gmbh, priority 2020, published 2023).
# Tests used:
# [1] = molecular target: T1, G2019S human LRRK2, catalytic site (Homo sapiens, UniProt Q5S007, G2019S); experiment: TR-FRET LanthaScreen Eu Kinase Binding Assay, LRRK2 G2019S; details: LRRK2(G2019); one range stated for wt and G2019; read-out: IC50, Activity Toward LRRK2(G2019)
# T1 construct: G2019S human LRRK2, catalytic site; purchased ThermoFisher
# Outline: (§1)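 Tracer-displacement binding: compound mixed with kinase/Eu-antibody and Kinase Tracer 236 in 1× Kinase Buffer A, 1 h at room temperature, then TR-FRET emission ratio read. LRRK2 (wt or G2019S) 5 nM with 2 nM Eu-anti-GST, 10 nM tracer; NUAK1 8 nM with 2 nM Eu-anti-His, 5 nM tracer.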
# [2] = molecular target: T2, wt human LRRK2, catalytic site (Homo sapiens, UniProt Q5S007); experiment: TR-FRET LanthaScreen Eu Kinase Binding Assay, LRRK2 wt; details: one range stated for wt and G2019, read-out: IC50, Activity Toward LRRK2(Wt)
# T2 construct: 5 nM wt human LRRK2, catalytic site; purchased ThermoFisher
# T2 sequence (Q5S007 970-2527 limits assumed): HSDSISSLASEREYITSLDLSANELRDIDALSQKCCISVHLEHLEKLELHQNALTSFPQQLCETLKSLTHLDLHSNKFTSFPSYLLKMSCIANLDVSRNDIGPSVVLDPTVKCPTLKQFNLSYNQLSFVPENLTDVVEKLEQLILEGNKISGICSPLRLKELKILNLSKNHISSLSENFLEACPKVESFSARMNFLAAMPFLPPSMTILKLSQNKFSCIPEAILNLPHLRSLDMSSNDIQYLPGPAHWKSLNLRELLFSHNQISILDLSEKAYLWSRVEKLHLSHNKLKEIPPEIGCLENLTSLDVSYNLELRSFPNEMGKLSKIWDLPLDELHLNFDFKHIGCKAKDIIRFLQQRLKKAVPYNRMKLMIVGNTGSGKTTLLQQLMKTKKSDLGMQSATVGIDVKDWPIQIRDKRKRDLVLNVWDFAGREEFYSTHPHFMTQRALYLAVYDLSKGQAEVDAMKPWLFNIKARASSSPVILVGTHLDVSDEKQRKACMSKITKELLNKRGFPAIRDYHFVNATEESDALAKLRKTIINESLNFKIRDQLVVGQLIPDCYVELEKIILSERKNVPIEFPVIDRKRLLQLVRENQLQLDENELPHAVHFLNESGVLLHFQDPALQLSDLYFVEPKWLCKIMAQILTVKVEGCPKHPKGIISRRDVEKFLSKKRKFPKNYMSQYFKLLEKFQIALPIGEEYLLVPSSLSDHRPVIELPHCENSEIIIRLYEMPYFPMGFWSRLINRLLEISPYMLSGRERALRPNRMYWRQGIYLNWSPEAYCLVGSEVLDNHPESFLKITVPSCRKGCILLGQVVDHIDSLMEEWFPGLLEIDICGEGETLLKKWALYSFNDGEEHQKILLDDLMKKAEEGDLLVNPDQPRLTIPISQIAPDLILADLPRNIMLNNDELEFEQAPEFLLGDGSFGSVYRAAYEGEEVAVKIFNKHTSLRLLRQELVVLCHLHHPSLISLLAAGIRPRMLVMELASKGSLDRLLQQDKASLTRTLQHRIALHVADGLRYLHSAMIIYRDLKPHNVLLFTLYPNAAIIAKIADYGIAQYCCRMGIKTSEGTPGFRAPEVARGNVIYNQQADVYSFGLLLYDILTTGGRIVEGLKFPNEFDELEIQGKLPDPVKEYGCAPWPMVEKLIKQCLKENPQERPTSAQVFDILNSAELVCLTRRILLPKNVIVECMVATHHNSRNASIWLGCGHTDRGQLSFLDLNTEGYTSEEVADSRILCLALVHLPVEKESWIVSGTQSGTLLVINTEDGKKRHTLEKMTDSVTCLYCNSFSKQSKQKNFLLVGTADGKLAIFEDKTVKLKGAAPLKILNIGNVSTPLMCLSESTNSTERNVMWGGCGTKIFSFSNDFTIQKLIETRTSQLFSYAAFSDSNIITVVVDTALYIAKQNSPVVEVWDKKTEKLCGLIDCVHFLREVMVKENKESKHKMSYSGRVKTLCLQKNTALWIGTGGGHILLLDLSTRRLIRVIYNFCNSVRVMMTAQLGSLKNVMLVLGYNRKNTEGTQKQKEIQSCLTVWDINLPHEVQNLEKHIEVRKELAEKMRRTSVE
# Outline: as §1
# [3] = molecular target: T3, wt human JAK1, catalytic site (Homo sapiens, UniProt P23458); experiment: HTRF KinEASE assay, JAK1; type: biochemical; details: 2.5 μM ATP; read-out: IC50, Activity Toward JAK1
# T3 construct: wt human JAK1, catalytic site; purchased ThermoFisher
# T3 sequence (P23458 875-1153 limits assumed): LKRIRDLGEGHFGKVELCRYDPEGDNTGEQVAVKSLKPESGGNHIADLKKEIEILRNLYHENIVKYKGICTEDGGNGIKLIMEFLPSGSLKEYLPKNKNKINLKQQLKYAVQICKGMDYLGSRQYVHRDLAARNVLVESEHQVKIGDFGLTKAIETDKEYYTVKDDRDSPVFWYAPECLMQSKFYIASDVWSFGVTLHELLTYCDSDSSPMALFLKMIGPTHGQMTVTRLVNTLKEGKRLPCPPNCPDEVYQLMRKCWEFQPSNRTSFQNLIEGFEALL
# Outline: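 Two-step HTRF KinEASE assay: compound, kinase/biotinylated TK substrate and ATP were incubated at least 30 min at room temperature. Antibody plus streptavidin-XL665 was then added and plates were read after 60 min. Inhibition was derived from emission ratios according to the kit protocol.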
# [4] = molecular target: T4, wt human TYK2, catalytic site (Homo sapiens, UniProt P29597); experiment: HTRF KinEASE assay, TYK2; type: biochemical; details: 1 μM ATP; read-out: IC50, Activity Toward TYK2
# T4 construct: wt human TYK2, catalytic site; purchased SignalChem
# T4 sequence (P29597 897-1176 limits assumed): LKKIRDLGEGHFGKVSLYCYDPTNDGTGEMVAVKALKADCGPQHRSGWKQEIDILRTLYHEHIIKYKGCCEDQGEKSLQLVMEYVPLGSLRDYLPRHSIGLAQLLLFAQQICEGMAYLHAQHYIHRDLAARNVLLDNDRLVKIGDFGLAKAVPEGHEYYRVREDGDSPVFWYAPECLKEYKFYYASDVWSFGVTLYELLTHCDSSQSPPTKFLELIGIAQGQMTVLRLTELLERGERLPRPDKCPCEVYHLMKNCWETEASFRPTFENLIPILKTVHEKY
# Outline: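 HTRF KinEASE-TK readout with 1 μM biotinylated TK substrate in 1× kinase buffer, ≥30 min at room temperature, then antibody/streptavidin-XL665 detection for 60 min. TYK2 at 2 nM with 1 μM ATP; JAK2 at 1 nM with 100 μM ATP. Analysis uses emission ratios.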
# [5] = molecular target: T5, wt human NUAK1, full length (Homo sapiens, UniProt O60285); experiment: TR-FRET LanthaScreen Eu Kinase Binding Assay, NUAK1; details: read-out: IC50, Activity Toward NUAK1
# T5 construct: 8 nM wt human NUAK1, full length (ThermoFisher/USA); purchased ThermoFisher
# T5 sequence (O60285 1-661): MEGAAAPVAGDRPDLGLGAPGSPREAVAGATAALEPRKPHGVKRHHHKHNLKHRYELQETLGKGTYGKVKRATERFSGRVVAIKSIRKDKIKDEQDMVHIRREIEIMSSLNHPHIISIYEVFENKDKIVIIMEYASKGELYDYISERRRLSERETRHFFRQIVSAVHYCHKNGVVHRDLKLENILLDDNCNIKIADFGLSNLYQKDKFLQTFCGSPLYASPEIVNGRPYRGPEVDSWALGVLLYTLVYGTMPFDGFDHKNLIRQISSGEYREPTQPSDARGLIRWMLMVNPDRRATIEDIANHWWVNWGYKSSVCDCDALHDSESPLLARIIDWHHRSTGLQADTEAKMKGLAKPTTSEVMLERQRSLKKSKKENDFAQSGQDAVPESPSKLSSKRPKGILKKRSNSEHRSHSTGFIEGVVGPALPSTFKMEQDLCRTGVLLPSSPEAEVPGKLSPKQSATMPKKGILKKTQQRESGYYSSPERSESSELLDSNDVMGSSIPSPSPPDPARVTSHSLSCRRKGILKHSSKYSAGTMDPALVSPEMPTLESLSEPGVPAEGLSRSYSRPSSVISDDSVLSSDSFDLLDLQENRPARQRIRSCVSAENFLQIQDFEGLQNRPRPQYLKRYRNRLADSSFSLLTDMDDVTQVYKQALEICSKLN
# Description: The basic protocol for TR-FRET LanthaScreen Eu Kinase Binding Assay inhibitor studies were performed as follows. LanthaScreen Kinase Binding Assays (ThermoFisher/USA) to evaluate inhibitors were performed by addition of 5 μL of test compound in corresponding DMSO dilutions/5 μl of kinase/antibody mixture, 5 μL of tracer into 384 well small volume plates. After incubation for 1 hour at room temperature, plates were read. Data analysis of emission ratios was according LanthaScreen Eu Kinase Binding Assay protocol.
# Kinase and assay components were adjusted to final concentrations according to kit protocol. For LRRK2: 5 nM wt human LRRK2, catalytic site, or G2019S human LRRK2, catalytic site (ThermoFisher/USA), 2 nM Eu-Anti-GST Antibody, 10 nM Kinase Tracer 236 in 1× Kinase Buffer A. For NUAK1: 8 nM wt human NUAK1, full length (ThermoFisher/USA), 2 nM Eu-Anti-His Antibody, 5 nM Kinase Tracer 236 in 1× Kinase Buffer A.
# T1 sequence (Q5S007 970-2527 G2019S limits assumed): as the sequence (Q5S007 970-2527 limits assumed) above, with G1050S counted along it
IC50 [1],IC50 [2],IC50 [3],IC50 [4],IC50 [5],SMILES
100 to 1000 nM,100 to 1000 nM,100 to 1000 nM,10 to 100 nM,100 to 1000 nM,"CCNC(=O)c1ccc(Nc2cn(-c3c(F)cccc3F)nc2C(N)=O)cc1 [compound 16, 1-(2,6-difluorophenyl)-4-((4-(ethylcarbamoyl)phenyl)amino)-1H-pyrazole-3-carboxamide]"
100 to 1000 nM,100 to 1000 nM,100 to 1000 nM,10 to 100 nM,100 to 1000 nM,"CC(C)(C)NC(=O)c1ccc(Nc2cn(-c3c(F)cccc3Cl)nc2C(N)=O)cc1 [compound 27, 4-((4-(tert-butylcarbamoyl)phenyl)amino)-1-(2-chloro-6-fluorophenyl)-1H-pyrazole-3-carboxamide]"
100 to 1000 nM,100 to 1000 nM,100 to 1000 nM,10 to 100 nM,100 to 1000 nM,"NC(=O)c1nn(-c2c(F)cccc2F)cc1Nc1ccc(C(=O)N2CCOCC2)nc1 [compound 30, 1-(2,6-difluorophenyl)-4-((6-(morpholine-4-carbonyl)pyridin-3-yl)amino)-1H-pyrazole-3-carboxamide]"
100 to 1000 nM,100 to 1000 nM,10 to 100 nM,10 to 100 nM,100 to 1000 nM,"CN1CCC(NC(=O)c2ccc(Nc3cn(-c4c(Cl)cccc4Cl)nc3C(N)=O)cc2)CC1 [compound 31, 1-(2,6-dichlorophenyl)-4-((4-((1-methylpiperidin-4-yl)carbamoyl)phenyl)amino)-1H-pyrazole-3-carboxamide]"
10 to 100 nM,10 to 100 nM,10 to 100 nM,10 to 100 nM,100 to 1000 nM,"CN1CCC(NC(=O)c2ccc(Nc3cn(-c4c(F)cccc4Cl)nc3C(N)=O)cc2)CC1 [compound 35, 1-(2-chloro-6-fluorophenyl)-4-((4-((1-methylpiperidin-4-yl)carbamoyl)phenyl)amino)-1H-pyrazole-3-carboxamide]"
100 to 1000 nM,100 to 1000 nM,10 to 100 nM,10 to 100 nM,10 to 100 nM,"NC(=O)c1nn(-c2c(F)cccc2Cl)cc1Nc1ccc(C(=O)NC2CCCNC2)cc1 (stereo not shown) [compound 38, 1-(2-chloro-6-fluorophenyl)-4-((4-(piperidin-3-ylcarbamoyl)phenyl)amino)-1H-pyrazole-3-carboxamide]"
100 to 1000 nM,100 to 1000 nM,100 to 1000 nM,10 to 100 nM,100 to 1000 nM,"Cn1nncc1-c1ccc(Nc2cn(-c3c(Cl)cccc3Cl)nc2C(N)=O)cc1 [compound 48, 1-(2,6-dichlorophenyl)-4-((4-(1-methyl-1H-1,2,3-triazol-5-yl)phenyl)amino)-1H-pyrazole-3-carboxamide]"
100 to 1000 nM,100 to 1000 nM,100 to 1000 nM,10 to 100 nM,100 to 1000 nM,"NC(=O)c1nn(-c2c(F)cccc2Cl)cc1Nc1ccc(C(=O)N2CC3(CCC3)C2)cc1 [compound 54, 4-((4-(2-azaspiro[3.3]heptane-2-carbonyl)phenyl)amino)-1-(2-chloro-6-fluorophenyl)-1H-pyrazole-3-carboxamide]"
10 to 100 nM,10 to 100 nM,100 to 1000 nM,10 to 100 nM,100 to 1000 nM,"Cc1ccnnc1-c1ccc(Nc2cn(-c3c(F)cccc3Cl)nc2C(N)=O)cc1 [compound 56, 1-(2-chloro-6-fluorophenyl)-4-((4-(4-methylpyridazin-3-yl)phenyl)amino)-1H-pyrazole-3-carboxamide]"
100 to 1000 nM,100 to 1000 nM,100 to 1000 nM,10 to 100 nM,100 to 1000 nM,"NC(=O)c1nn(-c2c(F)cccc2C(F)(F)F)cc1Nc1ccc(C(=O)N2CC3(CCC3)C2)cc1 [compound 61, 4-((4-(2-azaspiro[3.3]heptane-2-carbonyl)phenyl)amino)-1-(2-fluoro-6-(trifluoromethyl)phenyl)-1H-pyrazole-3-carboxamide]"
100 to 1000 nM,100 to 1000 nM,100 to 1000 nM,10 to 100 nM,100 to 1000 nM,"NC(=O)c1nn(-c2c(F)cccc2Cl)cc1Nc1ccc(C(=O)N2CCOCC2)cn1 [compound 68, 1-(2-chloro-6-fluorophenyl)-4-((5-(morpholine-4-carbonyl)pyridin-2-yl)amino)-1H-pyrazole-3-carboxamide]"
100 to 1000 nM,100 to 1000 nM,10 to 100 nM,10 to 100 nM,100 to 1000 nM,"NC(=O)c1nn(-c2c(Cl)cccc2Cl)cc1Nc1ccc(C(=O)N2CCCCC2)cc1 [compound 82, 1-(2,6-dichlorophenyl)-4-((4-(piperidine-1-carbonyl)phenyl)amino)-1H-pyrazole-3-carboxamide]"
100 to 1000 nM,100 to 1000 nM,10 to 100 nM,< 10 nM,100 to 1000 nM,"NC(=O)c1nn(-c2c(Cl)cccc2Cl)cc1Nc1ccc(C(=O)N2CCN(CC3CC3)CC2)cc1 [compound 86, 4-((4-(4-(cyclopropylmethyl)piperazine-1-carbonyl)phenyl)amino)-1-(2,6-dichlorophenyl)-1H-pyrazole-3-carboxamide]"
10 to 100 nM,10 to 100 nM,10 to 100 nM,10 to 100 nM,100 to 1000 nM,"NC(=O)c1nn(-c2c(F)cccc2Cl)cc1Nc1ccc(-n2ncc3c2CCOC3)cc1 [compound 208, 1-(2-chloro-6-fluorophenyll)-4-((4-(6,7-dihydropyrano[4,3-c]pyrazol-1(4H)-yl)phenyl)amino)-1H-pyrazole-3-carboxamide]"
100 to 1000 nM,100 to 1000 nM,10 to 100 nM,10 to 100 nM,100 to 1000 nM,"Cn1ccnc1-c1ccc(Nc2cn(-c3c(Cl)cccc3Cl)nc2C(N)=O)cc1 [compound 225, 1-(2,6-dichlorophenyl)-4-((4-(1-methyl-1H-imidazol-2-yl)phenyl)amino)-1H-pyrazole-3-carboxamide]"
100 to 1000 nM,100 to 1000 nM,10 to 100 nM,10 to 100 nM,100 to 1000 nM,"NC(=O)c1nn(-c2c(F)cccc2Cl)cc1Nc1ccc(C(=O)N2CCCCC2)cc1 [compound 228, 1-(2-chloro-6-fluorophenyl)-4-((4-(piperidine-1-carbonyl)phenyl)amino)-1H-pyrazole-3-carboxamide]"
100 to 1000 nM,100 to 1000 nM,10 to 100 nM,< 10 nM,100 to 1000 nM,"NC(=O)c1nn(-c2c(Cl)cccc2Cl)cc1Nc1ccc(-c2nccn2CC(F)F)cc1 [compound 230, 1-(2,6-dichlorophenyl)-4-((4-(1-(2,2-difluoroethyl)-1H-imidazol-2-yl)phenyl)amino)-1H-pyrazole-3-carboxamide]"
